Measured values: PubChem BioAssay AID2060891 (Molecular Pharmacology Branch, DTP, NCI, 2025)
pIC50: −log10 of the molar value.

System: K98450-129-R-PDC complex spheroid growth, percent test/control
Test: Anticancer human tumor K98450-129-R-PDC patient-derived colon adenocarcinoma cell line growth inhibition [RAS]
Conditions: for pIC50: curve of first compound; for viability, T/C: stronger effect = lower value
Summary of the method: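 Multi-cell-type spheroids: tumor cells plus HUVEC endothelial cells and mesenchymal stem cells. RAS-pathway inhibitors were combined with targeted agents, each dosed in half-log steps down from clinical Cmax, or from 10 microM when Cmax was unknown.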
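Also: spheroids exposed to agents for seven days before the viability readout.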
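For viability, T/C in this document: luminescence used as a proxy for viable cell amount.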

`CC1(C)CCC(Nc2ncc(C(F)(F)F)c(-c3c[nH]c4c(P(C)(C)=O)c(C#N)ccc34)n2)CN1` (centres undefined) + CCn1c(-c2cc(N3CCN(C)CC3)cnc2C(C)OC)c2c3cc(ccc31)-c1csc(n1)CC(NC(=O)C1CC1C)C(=O)N1CCCC(N1)C(=O)OCC(C)(C)C2 showed a pIC50 (second compound 0.000949 µM) of under 6.52, a pIC50 (second compound 0.003 µM) of under 6.52 and a pIC50 (second compound 0.00949 µM) of under 6.52. For the same molecule, the pIC50 (second compound 0.03 µM) was under 6.52, the pIC50 (second compound 0.0949 µM) was over 9.02 and the pIC50 (second compound 0.3 µM) was over 9.02. It also gave a viability, T/C (second compound 0.000949 µM, first compound 0.000949 µM) of 100%, a viability, T/C (second compound 0.000949 µM, first compound 0.003 µM) of 82.2% and a viability, T/C (second compound 0.000949 µM, first compound 0.00949 µM) of 96.2%. For the same molecule, the viability, T/C (second compound 0.000949 µM, first compound 0.03 µM) was 89.7%, the viability, T/C (second compound 0.000949 µM, first compound 0.0949 µM) was 80.8% and the viability, T/C (second compound 0.000949 µM, first compound 0.3 µM) was 79.5%. It also gave a viability, T/C (second compound 0.003 µM, first compound 0.000949 µM) of 81.2%, a viability, T/C (second compound 0.003 µM, first compound 0.003 µM) of 83.2% and a viability, T/C (second compound 0.003 µM, first compound 0.00949 µM) of 85.6%. It also gave a viability, T/C (second compound 0.003 µM, first compound 0.03 µM) of 94.6%, a viability, T/C (second compound 0.003 µM, first compound 0.0949 µM) of 77.2% and a viability, T/C (second compound 0.003 µM, first compound 0.3 µM) of 69.4%. For the same molecule, the viability, T/C (second compound 0.00949 µM, first compound 0.000949 µM) was 75.2%, the viability, T/C (second compound 0.00949 µM, first compound 0.003 µM) was 77.1% and the viability, T/C (second compound 0.00949 µM, first compound 0.00949 µM) was 76.7%. It also gave a viability, T/C (second compound 0.00949 µM, first compound 0.03 µM) of 77.8%, a viability, T/C (second compound 0.00949 µM, first compound 0.0949 µM) of 81.7% and a viability, T/C (second compound 0.00949 µM, first compound 0.3 µM) of 60.2%. For the same molecule, the viability, T/C (second compound 0.03 µM, first compound 0.000949 µM) was 54.1%, the viability, T/C (second compound 0.03 µM, first compound 0.003 µM) was 49.5% and the viability, T/C (second compound 0.03 µM, first compound 0.00949 µM) was 51.2%. It also gave a viability, T/C (second compound 0.03 µM, first compound 0.03 µM) of 61.7%, a viability, T/C (second compound 0.03 µM, first compound 0.0949 µM) of 63.1% and a viability, T/C (second compound 0.03 µM, first compound 0.3 µM) of 43.8%. It also gave a viability, T/C (second compound 0.0949 µM, first compound 0.000949 µM) of 24.6%, a viability, T/C (second compound 0.0949 µM, first compound 0.003 µM) of 26.8% and a viability, T/C (second compound 0.0949 µM, first compound 0.00949 µM) of 30.6%. It also gave a viability, T/C (second compound 0.0949 µM, first compound 0.03 µM) of 35.1%, a viability, T/C (second compound 0.0949 µM, first compound 0.0949 µM) of 40.3% and a viability, T/C (second compound 0.0949 µM, first compound 0.3 µM) of 37%. The viability, T/C (second compound 0.3 µM, first compound 0.000949 µM) was 12.7%, the viability, T/C (second compound 0.3 µM, first compound 0.003 µM) was 14.7% and the viability, T/C (second compound 0.3 µM, first compound 0.00949 µM) was 17.9%. The viability, T/C (second compound 0.3 µM, first compound 0.03 µM) was 23.5%, the viability, T/C (second compound 0.3 µM, first compound 0.0949 µM) was 28.4% and the viability, T/C (second compound 0.3 µM, first compound 0.3 µM) was 25.2%.

For `CC(C)n1nc(-c2ccc3oc(N)nc3c2)c2c(N)ncnc21` + CCn1c(-c2cc(N3CCN(C)CC3)cnc2C(C)OC)c2c3cc(ccc31)-c1csc(n1)CC(NC(=O)C1CC1C)C(=O)N1CCCC(N1)C(=O)OCC(C)(C)C2, the pIC50 (second compound 0.000949 µM) was under 7.00, the pIC50 (second compound 0.003 µM) was under 7.00 and the pIC50 (second compound 0.00949 µM) was under 7.00. It also gave a pIC50 (second compound 0.03 µM) of 8.00, a pIC50 (second compound 0.0949 µM) of over 9.50 and a pIC50 (second compound 0.3 µM) of over 9.50. It also gave a viability, T/C (second compound 0.000949 µM, first compound 0.000316 µM) of 98.9%, a viability, T/C (second compound 0.000949 µM, first compound 0.001 µM) of 80.9% and a viability, T/C (second compound 0.000949 µM, first compound 0.00316 µM) of 91.9%. It also gave a viability, T/C (second compound 0.000949 µM, first compound 0.01 µM) of 70.7%, a viability, T/C (second compound 0.000949 µM, first compound 0.0316 µM) of 82.7% and a viability, T/C (second compound 0.000949 µM, first compound 0.1 µM) of 70.7%. It also gave a viability, T/C (second compound 0.003 µM, first compound 0.000316 µM) of 88.4%, a viability, T/C (second compound 0.003 µM, first compound 0.001 µM) of 70.8% and a viability, T/C (second compound 0.003 µM, first compound 0.00316 µM) of 76.1%. The viability, T/C (second compound 0.003 µM, first compound 0.01 µM) was 65.4%, the viability, T/C (second compound 0.003 µM, first compound 0.0316 µM) was 71.2% and the viability, T/C (second compound 0.003 µM, first compound 0.1 µM) was 64%. For the same molecule, the viability, T/C (second compound 0.00949 µM, first compound 0.000316 µM) was 80.7%, the viability, T/C (second compound 0.00949 µM, first compound 0.001 µM) was 60.1% and the viability, T/C (second compound 0.00949 µM, first compound 0.00316 µM) was 63.9%. For the same molecule, the viability, T/C (second compound 0.00949 µM, first compound 0.01 µM) was 57.4%, the viability, T/C (second compound 0.00949 µM, first compound 0.0316 µM) was 60.2% and the viability, T/C (second compound 0.00949 µM, first compound 0.1 µM) was 48.1%. The viability, T/C (second compound 0.03 µM, first compound 0.000316 µM) was 44.8%, the viability, T/C (second compound 0.03 µM, first compound 0.001 µM) was 57.9% and the viability, T/C (second compound 0.03 µM, first compound 0.00316 µM) was 46.3%. The viability, T/C (second compound 0.03 µM, first compound 0.01 µM) was 51.4%, the viability, T/C (second compound 0.03 µM, first compound 0.0316 µM) was 36.9% and the viability, T/C (second compound 0.03 µM, first compound 0.1 µM) was 36.1%. The viability, T/C (second compound 0.0949 µM, first compound 0.000316 µM) was 19.6%, the viability, T/C (second compound 0.0949 µM, first compound 0.001 µM) was 20.5% and the viability, T/C (second compound 0.0949 µM, first compound 0.00316 µM) was 17.9%. It also gave a viability, T/C (second compound 0.0949 µM, first compound 0.01 µM) of 15.8%, a viability, T/C (second compound 0.0949 µM, first compound 0.0316 µM) of 14.6% and a viability, T/C (second compound 0.0949 µM, first compound 0.1 µM) of 11.1%. It also gave a viability, T/C (second compound 0.3 µM, first compound 0.000316 µM) of 9.98%, a viability, T/C (second compound 0.3 µM, first compound 0.001 µM) of 11% and a viability, T/C (second compound 0.3 µM, first compound 0.00316 µM) of 10.3%. For the same molecule, the viability, T/C (second compound 0.3 µM, first compound 0.01 µM) was 8.15%, the viability, T/C (second compound 0.3 µM, first compound 0.0316 µM) was 7.88% and the viability, T/C (second compound 0.3 µM, first compound 0.1 µM) was 7.36%.
